Data reported in US8575156B2, “Cyclic inhibitors of 11β-hydroxysteroid dehydrogenase 1” (Vitae Pharmaceuticals, Inc., priority 2007, dated 2013).
Like-named read-outs stand apart in the source and are kept apart here.

Molecular target: 11β-HSD1 (Homo sapiens, UniProt P28845)
Assay: biochemical
Settings: for IC50: IC50 Range, Biological Test Example 1, microsomes from CHO cells overexpressing human 11β-HSD1
[1] = read-out: Average % inhibition at 111.1 nM, Biological Test Example 1, 111.1 nM compound
[2] = read-out: Average % inhibition at 111.1 nM

11β-HSD1, sequence (P28845 whole entry): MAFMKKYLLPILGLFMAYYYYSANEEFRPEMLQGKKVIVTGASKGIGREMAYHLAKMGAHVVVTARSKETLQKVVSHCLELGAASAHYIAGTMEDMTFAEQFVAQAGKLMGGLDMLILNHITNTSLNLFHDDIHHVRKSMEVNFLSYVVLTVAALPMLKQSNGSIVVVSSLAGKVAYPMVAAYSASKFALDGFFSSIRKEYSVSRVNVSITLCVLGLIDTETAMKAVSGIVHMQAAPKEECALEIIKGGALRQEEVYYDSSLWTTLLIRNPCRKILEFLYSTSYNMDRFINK

SMILES | IC50 | inhibition at 0.1111 µM [1] | inhibition at 0.1 µM (read-out: Average % inhibition at 100 nM, Biological Test Example 1, 100 nM compound) | inhibition at 0.1111 µM [2]
COc1cccc(-c2cccc(N3CCC(C)(c4ccccc4)OC3=O)c2)c1 (stereo not drawn) [EXAMPLE 34, 3-(3′-methoxybiphenyl-3-yl)-6-methyl-6-phenyl-1,3-oxazinan-2-one] | < 100 nM | 72% | – | –
CC1(c2ccccc2)CCN(c2cccc(-c3ccccc3CO)c2)C(=O)O1 (stereo not drawn) [EXAMPLE 35, 3-(2′-(hydroxymethyl)biphenyl-3-yl)-6-methyl-6-phenyl-1,3-oxazinan-2-one] | 100 to 1000 nM | 26.7% | – | –
CC1(c2ccccc2)CCN(c2cccc(-c3cccs3)c2)C(=O)O1 (stereo not drawn) [EXAMPLE 36, 6-methyl-6-phenyl-3-(3-(thiophen-2-yl)phenyl)-1,3-oxazinan-2-one] | < 100 nM | 63.3% | – | –
COC(=O)c1cccc(-c2cccc(N3CCC(C)(c4ccccc4)OC3=O)c2)c1 (stereo not drawn) [EXAMPLE 38, methyl 3′-(6-methyl-2-oxo-6-phenyl-1,3-oxazinan-3-yl)biphenyl-3-carboxylate] | 100 to 1000 nM | 17.8% | – | –
CC1(c2ccccc2)CCN(c2cccc(-c3cccc(CO)c3)c2)C(=O)O1 (stereo not drawn) [EXAMPLE 39, 3-(3′-(hydroxymethyl)biphenyl-3-yl)-6-methyl-6-phenyl-1,3-oxazinan-2-one] | 100 to 1000 nM | 24.8% | – | –
CC1(c2ccccc2)CCN(c2cccc(-c3cccc(S(C)(=O)=O)c3)c2)C(=O)O1 (stereo not drawn) [EXAMPLE 40, 6-methyl-3-(3′-(methylsulfonyl)biphenyl-3-yl)-6-phenyl-1,3-oxazinan-2-one] | 100 to 1000 nM | 28.8% | – | –
CC(=O)NCc1cccc(-c2cccc(N3CCC(C)(c4ccccc4)OC3=O)c2)c1 (stereo not drawn) [EXAMPLE 41, N-((3′-(6-methyl-2-oxo-6-phenyl-1,3-oxazinan-3-yl)biphenyl-3-yl)methyl)acetamide] | 100 to 1000 nM | 19.9% | – | –
CN(C)C(=O)c1ccc(-c2cccc(N3CCC(C)(c4ccccc4)OC3=O)c2)cc1 (stereo not drawn) [EXAMPLE 42, N,N-dimethyl-3′-(6-methyl-2-oxo-6-phenyl-1,3-oxazinan-3-yl)biphenyl-4-carboxamide] | 100 to 1000 nM | 36.7% | – | –
CC1(c2ccccc2)CCN(c2cccc(-c3ccc(O)cc3)c2)C(=O)O1 (stereo not drawn) [EXAMPLE 43, 3-(4′-hydroxybiphenyl-3-yl)-6-methyl-6-phenyl-1,3-oxazinan-2-one] | < 100 nM | 77.7% | – | –
CC1(c2ccccc2)CCN(c2cccc(-c3ccc(C(N)=O)cc3)c2)C(=O)O1 (stereo not drawn) [EXAMPLE 44, 3′-(6-methyl-2-oxo-6-phenyl-1,3-oxazinan-3-yl)biphenyl-4-carboxamide] | 100 to 1000 nM | 35% | – | –
CC1(c2ccccc2)CCN(c2cccc(-c3ccccc3NS(C)(=O)=O)c2)C(=O)O1 (stereo not drawn) [EXAMPLE 45, N-(3′-(6-methyl-2-oxo-6-phenyl-1,3-oxazinan-3-yl)biphenyl-2-yl)methanesulfonamide] | 100 to 1000 nM | 31.2% | – | –
COC(=O)c1ccc(-c2cccc(N3CCC(C)(c4ccccc4)OC3=O)c2)cc1 (stereo not drawn) [EXAMPLE 46, methyl 3′-(6-methyl-2-oxo-6-phenyl-1,3-oxazinan-3-yl)biphenyl-4-carboxylate] | 100 to 1000 nM | 46.4% | – | –
CNS(=O)(=O)c1ccc(-c2cccc(N3CCC(C)(c4ccccc4)OC3=O)c2)cc1 (stereo not drawn) [EXAMPLE 47, N-methyl-3′-(6-methyl-2-oxo-6-phenyl-1,3-oxazinan-3-yl)biphenyl-4-sulfonamide] | 100 to 1000 nM | 36.3% | – | –
CC1(c2ccccc2)CCN(c2cccc(-c3ccc(CO)cc3)c2)C(=O)O1 (stereo not drawn) [EXAMPLE 48, 3-(4′-(hydroxymethyl)biphenyl-3-yl)-6-methyl-6-phenyl-1,3-oxazinan-2-one] | 100 to 1000 nM | 37% | – | –
CC1(c2ccccc2)CCN(c2cccc(-c3cccc(-c4nnn[nH]4)c3)c2)C(=O)O1 (stereo not drawn) [EXAMPLE 49, 3-(3′-(1H-tetrazol-5-yl)biphenyl-3-yl)-6-methyl-6-phenyl-1,3-oxazinan-2-one] | 100 to 1000 nM | 15.4% | – | –
O=C1OC(CCO)(c2ccccc2F)CCN1c1cccc(-c2ccc(F)cc2Cl)n1 (stereo not drawn) [EXAMPLE 50, 3-(6-(2-chloro-4-fluorophenyl)pyridin-2-yl)-6-(2-fluorophenyl)-6-(2-hydroxyethyl)-1,3-oxazinan-2-one] | < 100 nM | 96.3% | – | –
C[C@@H](c1ccc(-c2ccc(F)cc2F)cc1)N1CC[C@](CC(O)CO)(c2ccc(F)cc2)OC1=O (stereo partly drawn) [EXAMPLE 52, (6S)-3-((S)-1-(2′,4′-difluorobiphenyl-4-yl)ethyl)-6-(2,3-dihydroxypropyl)-6-(4-fluorophenyl)-1,3-oxazinan-2-one] | < 100 nM | – | 98.6% | –
CC1(c2cccc(Cl)c2)CCN(c2cccc(N3CCCCC3)n2)C(=O)O1 (stereo not drawn) [EXAMPLE 53, 6-(3-chlorophenyl)-6-methyl-3-(6-(piperidin-1-yl)pyridin-2-yl)-1,3-oxazinan-2-one] | < 100 nM | – | – | 57.1%
CC1(c2ccccc2)CCN(c2ccnc(-c3ccc(F)cc3)n2)C(=O)O1 (stereo not drawn) [EXAMPLE 55, 3-(2-(4-fluorophenyl)pyrimidin-4-yl)-6-methyl-6-phenyl-1,3-oxazinan-2-one] | 100 to 1000 nM | – | – | 3.7%
CC1(c2ccccc2)CCN(c2ccnc(-c3cccc(F)c3)n2)C(=O)O1 (stereo not drawn) [EXAMPLE 56, 3-(2-(3-fluorophenyl)pyrimidin-4-yl)-6-methyl-6-phenyl-1,3-oxazinan-2-one] | 100 to 1000 nM | – | – | 5.6%
CC1(c2ccccc2)CCN(c2nccc(Cl)n2)C(=O)O1 (stereo not drawn) [EXAMPLE 57, 3-(4-chloropyrimidin-2-yl)-6-methyl-6-phenyl-1,3-oxazinan-2-one] | 100 to 1000 nM | – | – | 10.4%
CC1(c2ccccc2)CCN(c2nccc(-c3cccc(Cl)c3)n2)C(=O)O1 (stereo not drawn) [EXAMPLE 58, 3-(4-(3-chlorophenyl)pyrimidin-2-yl)-6-methyl-6-phenyl-1,3-oxazinan-2-one] | 100 to 1000 nM | 34.8% | – | –
CC1(c2ccccc2)CCN(c2nccc(-c3ccc(F)cc3F)n2)C(=O)O1 (stereo not drawn) [EXAMPLE 59, 3-(4-(2,4-difluorophenyl)pyrimidin-2-yl)-6-methyl-6-phenyl-1,3-oxazinan-2-one] | 100 to 1000 nM | 18% | – | –
CC1(c2ccccc2)CCN(c2nccc(-c3c(Cl)cccc3Cl)n2)C(=O)O1 (stereo not drawn) [EXAMPLE 60, 3-(4-(2,6-dichlorophenyl)pyrimidin-2-yl)-6-methyl-6-phenyl-1,3-oxazinan-2-one] | 100 to 1000 nM | 51.3% | – | –
CC1(c2ccccc2)CCN(c2nccc(-c3ccc(F)cc3)n2)C(=O)O1 (stereo not drawn) [EXAMPLE 61, 3-(4-(4-fluorophenyl)pyrimidin-2-yl)-6-methyl-6-phenyl-1,3-oxazinan-2-one] | 100 to 1000 nM | 17.7% | – | –
CC1(c2ccccc2)CCN(c2nccc(-c3cccc(F)c3)n2)C(=O)O1 (stereo not drawn) [EXAMPLE 62, 3-(4-(3-fluorophenyl)pyrimidin-2-yl)-6-methyl-6-phenyl-1,3-oxazinan-2-one] | 100 to 1000 nM | 20.5% | – | –
C=CCC1(c2ccccc2)CCN(c2cccc(Br)c2)C(=O)O1 (stereo not drawn) [EXAMPLE 63, 6-allyl-3-(3-bromophenyl)-6-phenyl-1,3-oxazinan-2-one] | < 100 nM | 59% | – | –
